Experimental data as given in paper PMC10398685 (ACS Omega, 2023).
Like-named read-outs stand apart in the source and are kept apart here.

Columns and labels:
[1] = system: SARS-CoV-2; assay: microbe, parasite or virus in culture; type: cell-based; settings: Severe acute respiratory syndrome coronavirus 2, 72 h; Calu-3 cells, MOI~0.03, 3 days incubation, CPE by XTT; read-out: EC50 (anti-SARS-CoV-2 activity)
[2] = in vitro; settings: African green monkey
[3] = in vitro; settings: human
[4] = biological target: SARS-CoV-2 nsp14 7-N MTase (Severe acute respiratory syndrome coronavirus 2, UniProt P0DTD1); assay: biochemical; settings: Echo MS assay, 20 nM nsp14, 4 μM SAM, 4 μM GpppA, duplicates
[5] = system: SARS-CoV-2; assay: microbe, parasite or virus in culture; type: cell-based; settings: Severe acute respiratory syndrome coronavirus 2, Vero C1008, 72 h; VeroE6 cells, MOI~0.03, 3 days incubation, CPE by XTT; read-out: EC50 (anti-SARS-CoV-2 activity)
[6] = Cytotoxicity (XTT) in Calu-3 cells; settings: human
[7] = Cytotoxicity (XTT) in Vero E6 cells; settings: African green monkey
[8] = in the same cell type; cited from earlier work

Compound | EC50 [1] [µM] | CC50 at 3 days [2] [µM] | CC50 at 3 days [3] [µM] | IC50 [4] [µM] | EC50 [5] [µM] | CC50 at 3 days [6] [µM] | CC50 at 3 days [7] [µM] | Reported intracellular uptake, free tenofovir [8] [µM] | Reported intracellular uptake, prodrug [8] [µM]
CCN(C[C@H]1O[C@@H](n2cnc3c(N)ncnc32)[C@H](O)[C@@H]1O)S(=O)(=O)c1ccc(OC)c(C#N)c1 [Compound 3a, reference compound] | > 100 | > 100 | > 100 | 0.195 ± 0.0253 | > 100 |  |  |  | 
COc1ccc(S(=O)(=O)N(C)C[C@H]2O[C@@H](n3cnc4c(N)ncnc43)[C@H](O)[C@@H]2O)cc1C#N [Compound 3b] |  |  |  | 0.128 ± 0.0144 |  |  |  |  | 
COc1ccc(S(=O)(=O)N(C[C@H]2O[C@@H](n3cnc4c(N)ncnc43)[C@H](O)[C@@H]2O)C(C)C)cc1C#N [Compound 3c] |  |  |  | 0.624 ± 0.0891 |  |  |  |  | 
COc1ccc(S(=O)(=O)N(C[C@H]2O[C@@H](n3cnc4c(N)ncnc43)[C@H](O)[C@@H]2O)C2CCCC2)cc1C#N [Compound 3d] |  |  |  | 2.38 ± 0.278 |  |  |  |  | 
CCN(C[C@H]1O[C@@H](n2cc(C#Cc3ncc[nH]3)c3c(N)ncnc32)[C@H](O)[C@@H]1O)S(=O)(=O)c1ccc(OC)c(C#N)c1 [Compound 12b] | > 100 | > 100 | > 100 | 0.034 ± 0.0049 | > 100 |  |  |  | 
CCN(C[C@H]1O[C@@H](n2cc(C#Cc3ccccc3)c3c(N)ncnc32)[C@H](O)[C@@H]1O)S(=O)(=O)c1ccc(OC)c(C#N)c1 [Compound 12c] | > 100 | > 100 | > 100 | 0.062 ± 0.0124 | > 100 |  |  |  | 
CCN(C[C@H]1O[C@@H](n2cc(C#Cc3cccc4ccccc34)c3c(N)ncnc32)[C@H](O)[C@@H]1O)S(=O)(=O)c1ccc(OC)c(C#N)c1 [Compound 12d] | > 100 | > 100 | > 100 | 0.261 ± 0.0516 | > 100 |  |  |  | 
CCN(C[C@H]1O[C@@H](n2cc(C#Cc3ccc(O)nc3)c3c(N)ncnc32)[C@H](O)[C@@H]1O)S(=O)(=O)c1ccc(OC)c(C#N)c1 [Compound 12f] | > 100 | > 100 | > 100 | 0.065 ± 0.0092 | > 100 |  |  |  | 
CCN(C[C@H]1O[C@@H](n2cc(C#Cc3cnc(O)nc3)c3c(N)ncnc32)[C@H](O)[C@@H]1O)S(=O)(=O)c1ccc(OC)c(C#N)c1 [Compound 12g] | > 100 | > 100 | > 100 | 0.075 ± 0.0083 | > 100 |  |  |  | 
CCN(C[C@H]1O[C@@H](n2cc(C#Cc3cnc(N)nc3)c3c(N)ncnc32)[C@H](O)[C@@H]1O)S(=O)(=O)c1ccc(OC)c(C#N)c1 [Compound 12i] | > 100 | > 100 | > 100 | 0.038 ± 0.0042 | > 100 |  |  |  | 
CCN(C[C@H]1O[C@@H](n2cc(C#Cc3c[nH]c(=O)[nH]c3=O)c3c(N)ncnc32)[C@H](O)[C@@H]1O)S(=O)(=O)c1ccc(OC)c(C#N)c1 [Compound 12j] | > 100 | > 100 | > 100 | 0.07 ± 0.0081 | > 100 |  |  |  | 
CCN(C[C@H]1O[C@@H](n2cc(C#Cc3c[nH]c(=O)nc3N)c3c(N)ncnc32)[C@H](O)[C@@H]1O)S(=O)(=O)c1ccc(OC)c(C#N)c1 [Compound 12k] | > 100 | > 100 | > 100 | 0.088 ± 0.0112 | > 100 |  |  |  | 
CCN(C[C@H]1O[C@@H](n2cc(C#Cc3cncnc3)c3c(N)ncnc32)[C@H](O)[C@@H]1O)S(=O)(=O)c1ccc(OC)c(C#N)c1 [Compound 12m] | > 100 | > 100 | > 100 | 0.051 ± 0.0062 | > 100 |  |  |  | 
CCN(C[C@H]1O[C@@H](n2cc(C#Cc3ccncc3)c3c(N)ncnc32)[C@H](O)[C@@H]1O)S(=O)(=O)c1ccc(OC)c(C#N)c1 [Compound 12n] | > 100 | > 100 | > 100 | 0.041 ± 0.0071 | > 100 |  |  |  | 
CCN(C[C@H]1O[C@@H](n2cc(C#Cc3ccc(C(=O)O)cc3)c3c(N)ncnc32)[C@H](O)[C@@H]1O)S(=O)(=O)c1ccc(OC)c(C#N)c1 [Compound 12p] | > 100 | > 100 | > 100 | 0.084 ± 0.0094 | > 100 |  |  |  | 
CCC(CC)COC(=O)[C@H](C)N[P@](=O)(OC[C@H]1O[C@@](C#N)(c2ccc3c(N)ncnn23)[C@H](O)[C@@H]1O)Oc1ccccc1 [Remdesivir, reference compound] | 0.26 |  |  |  | 1.2 | > 50 | > 50 |  | 
Nc1ncnc2c1c(C#Cc1cnc3ccccc3c1)cn2[C@@H]1O[C@H](CSCC[C@H](N)C(=O)O)[C@@H](O)[C@H]1O [TO507, reference compound] | > 100 | > 100 | > 100 | 0.068 ± 0.0121 | > 100 |  |  |  | 
CC(C)OC(=O)[C@H](C)N[P@](=O)(CO[C@H](C)Cn1cnc2c(N)ncnc21)Oc1ccccc1 [tenofovir alafenamide] |  |  |  |  |  |  |  | 67 | 0.9
